{
  "source": "patent US8691183B2",
  "about": "“Means for the detection and treatment of prostate cells” (Eberhard-Karls-Universitaet Tuebingen Universitaetsklinikum, priority 2008, dated 2014)",
  "key": {"[1]": {"system": "other tumor cell lines (non-prostate)", "test": "In-vitro MRT / MR relaxometry of cells in Eppendorf tubes", "format": "cell-based, human", "conditions": "other carcinoma cells; incubation, washed three times with PBS", "description": "(§1) For the MR relaxometry, all tumor cell lines were grown in 75 cm^2 culture flasks (Corning Costar, Bodenheim, Germany) (70% confluency). Accutase™ (PAA Laboratories, Pasching, Austria) was added to achieve detachment of the cells, which were harvested and subsequently aliquoted into Eppendorf tubes (6×10^6 cells per tube). The cells in the tubes were incubated with the DOTA-containing compounds (130 μM). After a 20 minutes incubation period at 37° C. in an atmosphere of 5% CO2, the cells were washed three times in PBS and centrifuged at 800 rpm for 5 minutes.\n(§2) The in-vitro MRT was performed with a 3 Tesla-whole body MRT system (Magnetom TRIO, circular polarized wrist coil, Siemens, Erlangen, Germany)\n(§3) Sagittal T1-weighted MR images were obtained using the following spin-echo sequence:\n(§4) Repetition time (TR): 200 ms, echo time (TE): 7,4 ms, flip angle: 90°, averages: 1, concatenations: 2, measurements: 1, number of slices: 19, distance factor: 30%, slice thickness: 3 mm, field of view read: 180 mm/100%, resolution: 256/100%, voxel size: 0.7×0.7×3.0 mm, scan time: 1:48 min.\n(§5) The T1 relaxation times were evaluated from signal intensities obtained by multiple spin-echo measurements:\n(§6) Repetition time (TR): 20-8000 ms (50 different TR values), echo time (TE): 6.4 ms, flip angle: 90°, averages: 1, measurements: 1, number of slices: 1, slice thickness: 1 mm, field of view read: 120 mm/87.5%, resolution: 128/100%, voxel size: 0.9×0.9×1 mm.\n(§7) The analysis and calculations were performed using a Matlab program (Math Works, Natick, Mass., USA). The T1 values were approximated by a three-parameter fit procedure. All signal curves were examined and found to be monoexponential. The investigations were performed in triplicate."}, "[2]": {"system": "LNCaP prostate carcinoma cells", "test": "In-vitro MRT / MR relaxometry of cells in Eppendorf tubes", "format": "cell-based, human", "conditions": "LNCaP; 20 minutes incubation, washed; 130 μM", "description": "as §1, §2, §3, §4, §5, §6, §7"}, "[3]": {"system": "colon carcinoma cells (Colo205)", "test": "Confocal laser scanning microscopy (CLSM) of cellular uptake", "format": "cell-based, human", "conditions": "20 minutes incubation, 10 μg/ml", "description": "(§8) The cells were grown to 80% confluency at 37° C., 5% CO2 (vol/vol) in 4-well plates (NUNC, Wiesbaden, Germany) with about 300,000 cells per well.\n(§9) U373 human glioma cells, human prostate carcinoma cells PC3 and LNCaP, human Jurkat lymphoma cells, and human colon carcinoma cells Colo205 were grown in RPMI1640 ready mix medium containing L-glutamine and 10% fetal bovine serum (FBS)-gold (PAA Laboratories, Pasching, Austria). U2OS human osteosarcoma cells and HeLa human cervix carcinoma cells were grown in high glucose Dulbeccos modified Eagle's medium containing GlutaMax™ and pyrovate and 10% FBS-gold. Healthy human prostate cells (CC2555, Lonza, Verviers, Belgium) were cultivated in prostate endothelial cell growth medium (PrEGM, Lonza, Verviers, Belgium).\n(§10) The compounds 1, 2 and 4 were dissolved at 1 mg/ml in pure ethanol (Riedel de Haen, Sigma-Aldrich, Taufkirchen, Germany) and then diluted in the appropriate medium for the cells to 10 μg/ml of conjugate and 1% ethanol. The cells were incubated at 37° C. in an atmosphere of 5% CO2 for 20 minutes with the compounds. After this, the cells were rinsed three times with medium and then incubated with medium again. This experiment was also performed with free sulforhodamine B with a corresponding amount.\n(§11) The confocal laser scanning microscopy was performed on an inverted LSM510 laser scanning microscope (Carl Zeiss) (objective: LD Achroplan 40×0.6, Plan Neofluar 20×0.50, 40×0.75). For the rhodamine fluorescence excitation the 543 nm beam of a helium-neon laser with suitable beam splitters and barrier filters were used. All measures were performed at least three times on living, non-fixed cells."}, "[4]": {"system": "LNCaP prostate carcinoma cells", "test": "Confocal laser scanning microscopy (CLSM) of cellular uptake", "format": "cell-based, human", "conditions": "20 minutes incubation, 10 μg/ml", "description": "as §8, §9, §10, §11"}, "[5]": {"system": "non-prostate tumor cell lines", "test": "Fluorescence activated cell sorting (FACS) of cellular uptake", "format": "cell-based, human", "conditions": "remaining carcinoma cell lines; 20 minutes incubation; 10 μg/ml", "description": "(§12) For the fluorescence activated cell sorting (FACS), cells were grown in 75 cm^2 culture flasks (Corning Costar, Bodenheim, Germany) (80% confluency) under the same conditions as described for the confocal laser scanning microscopy. Accutase™ (PAA Laboratories, Pasching, Austria) was added to achieve detachment of the cells, which were harvested and subsequently alequoted into Eppendorf tubes (Eppendorf, Hamburg, Germany) (1×10^6 cells per tube). The cells were incubated for 20 minutes with the compounds 1, 2 and 4 (10 μg/ml in the appropriate medium with 1% ethanol) and the compound 10 (130 μM in the appropriate medium).\n(§13) Afterwards, the cells were washed three times in PBS and centrifuged at 800 rpm for 5 minutes. Then 300 μl FACS buffer (D-PBS containing 1% parafomaldehyde) were added. The samples were measured immediately. Approximately 20,000 events were recorded per sample. The fluorescence excitation was achieved by an argon laser (488 nm). The fluorescence was detected using a 580-610 and a 560-680 nm band-pass filter. All investigations were performed in triplicate.\n(§14) Mean rhodamine and fluorescein isothiocyanate fluorescence values of the samples were acquired using the WinMDI software (Joseph Trotter, Scripps Research Institute, San Diego, Calif., USA) and then statistically evaluated."}, "[6]": {"system": "PC-3 prostate carcinoma cells", "test": "Fluorescence activated cell sorting (FACS) of cellular uptake", "format": "cell-based, human", "conditions": "PC3; 20 minutes incubation; 10 μg/ml", "description": "as §12, §13, §14"}, "[7]": {"system": "PC-3 prostate carcinoma cells", "test": "Confocal laser scanning microscopy (CLSM) of cellular uptake", "format": "cell-based, human", "conditions": "20 minutes incubation, 260 μM", "description": "as §8, §9, §10\nThe compound 10 was dissolved in culture medium (260 μM). Lys(FITC)-aminobourgeonal (compound 7) was dissolved in culture medium with 1% ethanol (260 μM). The cells were incubated for 20 minutes (compound 10) and for 2 days (compounds 7 and 10). This assay was also performed with free FITC. After the incubation the cells were rinsed three times with medium and again incubated in medium. Propidium iodide (PI) (molecular probes, Eugene, Oreg., USA) was added to stain death cells.\n(§15) The confocal laser scanning microscopy was performed on an inverted LSM510 laser scanning microscope (Carl Zeiss) (objective: LD Achroplan 40×0.6, Plan Neofluar 20×0.50, 40×0.75). For the rhodamine fluorescence excitation the 543 nm beam of a helium-neon laser with suitable beam splitters and barrier filters were used. […]"}, "[8]": {"system": "osteosarcoma cells (U2OS)", "test": "Confocal laser scanning microscopy (CLSM) of cellular uptake", "format": "cell-based, human", "conditions": "20 minutes incubation, 260 μM", "description": "as §8, §9\nThe compound 10 was dissolved in culture medium (260 μM). Lys(FITC)-aminobourgeonal (compound 7) was dissolved in culture medium with 1% ethanol (260 μM). The cells were incubated for 20 minutes (compound 10) and for 2 days (compounds 7 and 10). This assay was also performed with free FITC. […]\nas §15"}, "[9]": {"system": "seven human tumor cell lines and healthy human epithelial prostate cells (CC2555)", "test": "Confocal laser scanning microscopy (CLSM) of cellular uptake, all cell types", "format": "cell-based", "conditions": "corresponding amount of free dye, 20 minutes", "description": "as §8, §9\nThe compounds 1, 2 and 4 were dissolved at 1 mg/ml in pure ethanol (Riedel de Haen, Sigma-Aldrich, Taufkirchen, Germany) and then diluted in the appropriate medium for the cells to 10 μg/ml of conjugate and 1% ethanol. The cells were incubated at 37° C. in an atmosphere of 5% CO2 for 20 minutes with the compounds. […]\nas §15"}},
  "note": "“Also recorded” adds a separate entry of the source.",
  "data": [
    {"compound": "O=C([O-])CN1CCN(CC(=O)[O-])CCN(CC(=O)O)CCN(CC(=O)[O-])CC1.[Gd+3]", "note": "[Gd-DOTA, reference compound]", "values": [
      {"measurement": "signal intensity of the cells in T1-weighted MRT images", "setting": "[1]", "value": "remain dark"},
      {"measurement": "uptake / signal intensity of the cells in T1-weighted MRT images", "setting": "[2]", "value": "not taken up by the prostate carcinoma cells; also recorded: remain dark"}
    ]},
    {"compound": "CCN(CC)c1ccc2c(-c3ccc(S(=O)(=O)NCCC(=O)Nc4ccc(/C=C\\C=O)cc4)cc3S(=O)(=O)[O-])c3ccc(=[N+](CC)CC)cc-3oc2c1", "note": "[compound 2, Sulforhodamine-Sulfonamido βAla-Aminocinnamaldehyde]", "values": [
      {"measurement": "uptake into the cells (rhodamine staining, CLSM)", "setting": "[3]", "value": "basically unstained"},
      {"measurement": "uptake into the cells (rhodamine staining, CLSM)", "setting": "[4]", "value": "significantly stained"}
    ]},
    {"compound": "CCN(CC)c1ccc2c(-c3ccc(S(=O)(=O)NCCC(=O)NCCCCCCCC=O)cc3S(=O)(=O)O)c3ccc(=[N+](CC)CC)cc-3oc2c1", "note": "[compound 4, sulforhodamine-sulfonamido βala-aminooctanal]", "values": [
      {"measurement": "fluorescence (rhodamine, FACS)", "setting": "[5]", "value": "only show little staining"},
      {"measurement": "fluorescence (rhodamine, FACS)", "setting": "[6]", "value": "highest fluorescence"}
    ]},
    {"compound": "fluorescein isothiocyanate [FITC, reference compound]", "values": [
      {"measurement": "uptake into the cells (FITC staining, CLSM)", "setting": "[7]", "value": "not uptaken by the cells"},
      {"measurement": "uptake into the cells (FITC staining, CLSM)", "setting": "[8]", "value": "not uptaken by the cells"}
    ]},
    {"compound": "sulforhodamine B", "values": [
      {"measurement": "uptake by any cell type (rhodamine staining, CLSM)", "setting": "[9]", "value": "not taken up by any cell types"}
    ]}
  ]
}
